Drawing on paper PMC10747725, “The Synthesis, In Vitro Bio-Evaluation, and In Silico Molecular Docking Studies of Pyrazoline–Thiazole Hybrid Analogues as Promising Anti-α-Glucosidase and Anti-Urease Agents” (Pharmaceuticals, 2023), this text covers IC50 and melting point for 18 molecules.

Where two headings read alike, the source gives them in different places.

One data set concerns the target urease (Canavalia ensiformis, UniProt P07374). Put plainly: biochemical. How it is done:
During the experiment, 55 L of buffer solution containing 100 mM of urea was combined with 25 L of enzyme solution to prepare reaction mixtures. A volume of 5 L containing 1 mM concentrations of recently produced compounds was then added to these mixtures. After 15 min of incubation at 30 °C, the reactions were allowed to occur in 96-well plates. The detection of ammonia generation by urease was carried out by using the Indophenol technique. A phenol reagent containing 1% w/v phenol and 0.005% w/v sodium nitroprusside was added to each well along with 70 µL of an alkali reagent containing 0.5% w/v NaOH and 0.1% active chloride NaOCl. Utilizing a microplate reader manufactured by Molecular Device in the United States, the increased absorbance was measured at 630 nm after another 50 min. In triplicate, the aforementioned procedures were performed using a constant end volume of […]. The final data, representing the rate at which the absorbance changed per minute, were analysed with the SoftMax Pro program by Molecular Device, New York, NY, USA. In alkaline conditions with a pH of 8.2, the experiments were conducted using 0.01 M K2HPO4·3H2O, 1 mM EDTA, and 0.01 M LiCl. A conventional inhibitor of urease, thiourea, was used in this study to determine the percentage of inhibition.

Another data set has as its target α-glucosidase. Put plainly: α-Glucosidase inhibitory assay. As to conditions: in vitro; standard acarbose; N.A * = Not active; read-out: α-Glucosidase IC50 (µM ±SEM). The data set is classed as biochemical. The procedure:
A procedure based on the previously reported procedure with minor modifications was used to determine the inhibitory capacity of the newly designed derivatives of benzothiazole-derived pyrazoline-based thiazole (1–17). For 20 min at 37 °C, […] in 100 mM of phosphate buffer (pH 6.8) for 20 min. The reaction mixture was then incubated for 1 h at 37 °C with 250 mL of 4-nitrophenyl-b-D-glucopyranoside solution and 250 mL of 1% starch dissolved in 100 mM of phosphate buffer (pH 6.8), respectively. Following this, the reaction mixture was heated for 10 min with 1.0 mL of 3,5-dinitrosalicylic acid colouring reagent. The absorbance of the final reaction mixture was determined for α-glucosidase at 405 nm. To correct the absorbance, a blank was prepared. […] A percentage of the inhibitory activity was calculated using a control sample without the inhibitors.

Chain of urease (P07374 whole entry, looked up): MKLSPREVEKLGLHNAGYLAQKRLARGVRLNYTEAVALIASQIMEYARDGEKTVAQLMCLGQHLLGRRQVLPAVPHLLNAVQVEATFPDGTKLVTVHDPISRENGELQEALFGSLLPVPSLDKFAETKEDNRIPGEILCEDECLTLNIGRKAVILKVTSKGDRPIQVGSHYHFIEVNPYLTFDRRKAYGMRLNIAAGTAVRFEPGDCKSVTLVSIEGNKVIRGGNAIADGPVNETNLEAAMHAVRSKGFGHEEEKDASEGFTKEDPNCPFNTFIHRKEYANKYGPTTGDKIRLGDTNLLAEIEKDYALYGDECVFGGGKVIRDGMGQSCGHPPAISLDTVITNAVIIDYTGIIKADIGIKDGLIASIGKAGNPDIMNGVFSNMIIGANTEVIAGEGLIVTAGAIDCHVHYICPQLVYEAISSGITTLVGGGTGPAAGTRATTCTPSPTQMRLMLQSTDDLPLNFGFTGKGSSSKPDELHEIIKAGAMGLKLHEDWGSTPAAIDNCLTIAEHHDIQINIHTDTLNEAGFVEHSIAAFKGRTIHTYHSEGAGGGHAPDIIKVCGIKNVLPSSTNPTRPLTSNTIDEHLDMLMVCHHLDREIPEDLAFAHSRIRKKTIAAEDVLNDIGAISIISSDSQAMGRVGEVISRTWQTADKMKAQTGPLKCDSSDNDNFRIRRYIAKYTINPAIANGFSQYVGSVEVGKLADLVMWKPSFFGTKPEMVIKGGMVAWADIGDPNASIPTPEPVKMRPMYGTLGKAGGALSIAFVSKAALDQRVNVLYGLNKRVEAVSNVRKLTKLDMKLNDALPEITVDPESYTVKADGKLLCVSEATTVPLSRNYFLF

Regarding `O=[N+]([O-])c1cc(Br)ccc1-c1csc(N2N=C(c3cc(Cl)cnc3Cl)CC2c2nc3ccccc3s2)n1` (stereo not shown) [Compound 1, 2-(1-(4-(4-Bromo-2-nitrophenyl)thiazol-2-yl)-3-(2,5-dichloropyridin-3-yl)-4,5-dihydro-1H-pyrazol-5-yl)benzo[d]thiazole], the melting point (as a rule, the temperature, or range, at which the solid turns liquid) lay within 233 to 234 °C. Besides, on urease, the IC50 – broadly, the midpoint of a concentration-inhibition curve – turned out to be 41.5 ± 1.7 µM. In addition, the IC50 on α-glucosidase came out at 13.1 ± 0.4 µM.

`Cc1ccc(C)c(-c2csc(N3N=C(c4cc(Cl)cnc4Cl)CC3c3nc4ccccc4s3)n2)c1` (stereo not shown) [Compound 2, 2-(3-(2,5-Dichloropyridin-3-yl)-1-(4-(2,5-dimethylphenyl)thiazol-2-yl)-4,5-dihydro-1H-pyrazol-5-yl)benzo[d]thiazole]: the melting point lay within 219 to 220 °C. The same molecule showed an IC50 at urease of 37.2 ± 1.9 µM. For the same molecule, on α-glucosidase, the IC50 is 14.2 ± 0.1 µM.

Molecule `Cc1ccc(-c2csc(N3N=C(c4cc(Cl)cnc4Cl)CC3c3nc4ccccc4s3)n2)cc1` (stereo not shown) [Compound 3, 2-(3-(2,5-Dichloropyridin-3-yl)-1-(4-(p-tolyl)thiazol-2-yl)-4,5-dihydro-1H-pyrazol-5-yl)benzo[d]thiazole] came in with a melting point of 227 to 228 °C. In addition, it took 33.2 ± 3.8 µM to reach half-maximal inhibition at urease (IC50). Further, the IC50 on α-glucosidase amounted to 7.5 ± 0.1 µM.

As to `O=[N+]([O-])c1ccc(-c2csc(N3N=C(c4cc(Cl)cnc4Cl)CC3c3nc4ccccc4s3)n2)cc1` (stereo not shown) [Compound 4, 2-(3-(2,5-Dichloropyridin-3-yl)-1-(4-(4-nitrophenyl)thiazol-2-yl)-4,5-dihydro-1H-pyrazol-5-yl)benzo[d]thiazole], the melting point lay within 232 to 233 °C. At urease, this molecule showed an IC50 of 23.3 ± 2.4 µM. The IC50 on α-glucosidase is 4.1 ± 0.3 µM.

`O=[N+]([O-])c1ccccc1-c1csc(N2N=C(c3cc(Cl)cnc3Cl)CC2c2nc3ccccc3s2)n1` (stereo not shown) [Compound 5, 2-(3-(2,5-Dichloropyridin-3-yl)-1-(4-(2-nitrophenyl)thiazol-2-yl)-4,5-dihydro-1H-pyrazol-5-yl)benzo[d]thiazole] returned a melting point of 224 to 225 °C. In addition, on urease, the IC50 was found to be 32.5 ± 2.1 µM. Further, on α-glucosidase, the IC50 turned out to be 6.7 ± 0.3 µM.

In the case of `FC(F)(F)c1ccc(-c2csc(N3N=C(c4cc(Cl)cnc4Cl)CC3c3nc4ccccc4s3)n2)cc1` (stereo not shown) [Compound 6, 2-(3-(2,5-Dichloropyridin-3-yl)-1-(4-(4-(trifluoromethyl)phenyl)thiazol-2-yl)-4,5-dihydro-1H-pyrazol-5-yl)benzo[d]thiazole], the melting point was in the range of 225 to 226 °C. The IC50 against urease is 14.3 ± 3.9 µM. Besides, the IC50 at α-glucosidase turned out to be 2.5 ± 0.3 µM.

`Oc1cc(F)ccc1-c1csc(N2N=C(c3cc(Cl)cnc3Cl)CC2c2nc3ccccc3s2)n1` (stereo not shown) [Compound 7, 2-(2-(5-(Benzo[d]thiazol-2-yl)-3-(2,5-dichloropyridin-3-yl)-4,5-dihydro-1H-pyrazol-1-yl)thiazol-4-yl)-5-fluorophenol] displayed a melting point of 228 to 229 °C. Moreover, 19.2 ± 0.1 µM corresponded to half-maximal inhibition against urease (IC50). The IC50 at α-glucosidase was found to be 3.2 ± 0.1 µM.

For the molecule `CN(C)c1ccc(-c2csc(N3N=C(c4cc(Cl)cnc4Cl)CC3c3nc4ccccc4s3)n2)cc1` (stereo not shown) [Compound 8, 4-(2-(5-(Benzo[d]thiazol-2-yl)-3-(2,5-dichloropyridin-3-yl)-4,5-dihydro-1H-pyrazol-1-yl)thiazol-4-yl)-N,N-dimethylaniline], the melting point fell in the range of 231 to 232 °C. Half-maximal inhibition against urease (IC50) was put at 39.2 ± 0.6 µM.

Consider `O=[N+]([O-])c1cc(Cl)ccc1-c1csc(N2N=C(c3cc(Cl)cnc3Cl)CC2c2nc3ccccc3s2)n1` (stereo not shown) [Compound 9, 2-(1-(4-(4-Chloro-2-nitrophenyl)thiazol-2-yl)-3-(2,5-dichloropyridin-3-yl)-4,5-dihydro-1H-pyrazol-5-yl)benzo[d]thiazole], for which the melting point was 230 to 231 °C. Besides, the IC50 on urease was 29.4 ± 0.1 µM. Also, the half-inhibitory concentration (IC50) at α-glucosidase came to 4.4 ± 0.3 µM.

In turn, `COc1ccc(OC)c(-c2csc(N3N=C(c4cc(Cl)cnc4Cl)CC3c3nc4ccccc4s3)n2)c1` (stereo not shown) [Compound 10, 2-(3-(2,5-Dichloropyridin-3-yl)-1-(4-(2,5-dimethoxyphenyl)thiazol-2-yl)-4,5-dihydro-1H-pyrazol-5-yl)benzo[d]thiazole] returned a melting point of 234 to 235 °C. The molecule also came in with an IC50 against urease of 33.7 ± 0.1 µM. Further, the IC50 on α-glucosidase was found to be 8.9 ± 0.2 µM.

Molecule `Fc1ccccc1-c1csc(N2N=C(c3cc(Cl)cnc3Cl)CC2c2nc3ccccc3s2)n1` (stereo not shown) [Compound 11, 2-(3-(2,5-Dichloropyridin-3-yl)-1-(4-(2-fluorophenyl)thiazol-2-yl)-4,5-dihydro-1H-pyrazol-5-yl)benzo[d]thiazole] returned a melting point of 221 to 222 °C.

Take `Fc1ccc(-c2csc(N3N=C(c4cc(Cl)cnc4Cl)CC3c3nc4ccccc4s3)n2)cc1` (stereo not shown) [Compound 12, 2-(3-(2,5-Dichloropyridin-3-yl)-1-(4-(4-fluorophenyl)thiazol-2-yl)-4,5-dihydro-1H-pyrazol-5-yl)benzo[d]thiazole]: the melting point lay in the range of 226 to 227 °C. Moreover, the IC50 against urease was 22.3 ± 0.8 µM. On α-glucosidase, the IC50 stood at 3.5 ± 0.1 µM.

For `Clc1cnc(Cl)c(C2=NN(c3nc(-c4ccc(OCc5ccccc5)cc4)cs3)C(c3nc4ccccc4s3)C2)c1` (stereo not shown) [Compound 13, 2-(1-(4-(4-(Benzyloxy)phenyl)thiazol-2-yl)-3-(2,5-dichloropyridin-3-yl)-4,5-dihydro-1H-pyrazol-5-yl)benzo[d]thiazole], the melting point is 242 to 243 °C.

In turn, `Oc1cc(Cl)cc(Cl)c1-c1csc(N2N=C(c3cc(Cl)cnc3Cl)CC2c2nc3ccccc3s2)n1` (stereo not shown) [Compound 14, 2-(2-(5-(Benzo[d]thiazol-2-yl)-3-(2,5-dichloropyridin-3-yl)-4,5-dihydro-1H-pyrazol-1-yl)thiazol-4-yl)-3,5-dichlorophenol] returned a melting point of 238 to 239 °C. The same molecule returned a concentration for half-maximal inhibition (IC50) against urease of 21.8 ± 2.9 µM. Also, the IC50 at α-glucosidase was 3.4 ± 0.1 µM.

`Cc1cc(-c2csc(N3N=C(c4cc(Cl)cnc4Cl)CC3c3nc4ccccc4s3)n2)cc(C)c1Br` (stereo not shown) [Compound 15, 2-(1-(4-(4-Bromo-3,5-dimethylphenyl)thiazol-2-yl)-3-(2,5-dichloropyridin-3-yl)-4,5-dihydro-1H-pyrazol-5-yl)benzo[d]thiazole] registered a melting point of 221 to 222 °C.

For `Clc1cnc(Cl)c(C2=NN(c3nc(-c4ccc5ccccc5c4)cs3)C(c3nc4ccccc4s3)C2)c1` (stereo not shown) [Compound 16, 2-(3-(2,5-Dichloropyridin-3-yl)-1-(4-(naphthalen-2-yl)thiazol-2-yl)-4,5-dihydro-1H-pyrazol-5-yl)benzo[d]thiazole], the melting point was 243 to 244 °C.

Consider `Clc1cnc(Cl)c(C2=NN(c3nc(-c4cccc(Cl)c4Cl)cs3)C(c3nc4ccccc4s3)C2)c1` (stereo not shown) [Compound 17, 2-(1-(4-(2,3-Dichlorophenyl)thiazol-2-yl)-3-(2,5-dichloropyridin-3-yl)-4,5-dihydro-1H-pyrazol-5-yl)benzo[d]thiazole], for which the melting point was 236 to 237 °C. At urease, the IC50 turned out to be 31.3 ± 0.4 µM. Also, at α-glucosidase, the IC50 was 6.8 ± 0.2 µM.

On to `NC(N)=S` [Thiourea, thiourea, reference compound], for which the IC50 at urease (in vitro, standard thiourea, N.A * = Not active, read-out: Urease IC50 (µM ± SEM)) came to 31.4 ± 2.5 µM.
